Patent publication EP0381141B1, “Novel aryl- or heteroaryl-1-alkyl-pyrrole-2-carboxylic acid compounds useful in treating interleukin-1 mediated conditions” (MERRELL DOW PHARMACEUTICALS INC., priority 1989, dated 1990)

System: Interleukin-1 Secretion by Macrophages
Test: Ex vivo inhibition of interleukin-1 secretion by macrophages (LPS-stimulated peritoneal cells from orally dosed mice; IL-1 measured by thymocyte H3-thymidine incorporation)
Type: in vivo
Conditions: p.o. 3 times (40, 24 and 16 hours prior to sacrifice); for Interleukin-1 units/ml Mean ± Sem(n): 100 mg/kg, macrophage culture supernatant, unit = reciprocal of the dilution required to give 50% of maximal H3-thymidine incorporation; for inhibition at 100 mg/kg: Mus musculus, Macrophage, po, versus control group
Description: The interleukin-1 inhibitory properties of the compounds of this invention can readily be determined by standard and well known procedures.
Peritoneal cells from mice which had been orally dosed with 100 mg/kg of test compound 40, 24 and 16 hours prior to sacrifice, were collected by lavage, pooled and washed by centrifugation. The cells were resuspended in RPMI-1640 medium containing antibiotics, and plated. After 1 hour of incubation at 37°C, non-adherent cells were removed, and RPMI, with or without lipopolysaccharide, was added to each well. The presence of lipopolysaccharide will induce interleukin-1 secretion by macrophages. After incubation for 6 hours, the culture supernatant was collected, filtered and stored until assayed.
Mouse thymocytes were suspended in RPMI enriched with fetal bovine serum and 2-mercaptoethanol. Aliquots of cell suspension were incubated with an equal volume of dilutions of macrophage culture supernatant in the presence of a suboptimal amount of phytohemagglutinin for 72 hours in flat-bottom plates. Microcultures were pulsed with H³-thymidine for the last 16 hours and were harvested on glass fiber filters. H₃-thymidine will be incorporated into the DNA of actively proliferating cells. The radioactivity was determined by liquid scintillation counting, and interleukin-1 activity was expressed in units defined as the reciprocal of the dilution required to give 50% of maximal H³-thymidine incorporation.
Compounds were administered at a dosage of 100 mg/kg, p.o. 3 times (40, 24 and 16 hours prior to sacrifice). Compound 1: 1-(2-furanylmethyl)-1H-pyrrole-2-carboxylic acid Compound 2: 1-(phenylmethyl)-1Hpyrrole-2 -carboxylic acid Compound 3: 1-([1,1'-biphenyl]-4-ylmethyl)-1H -pyrrole-2-carboxylic acid

SMILES	Interleukin-1 units/ml Mean ± Sem(n)	inhibition at 100 mg/kg
O=C(O)c1cccn1Cc1ccco1 [Compound 1, 1-(2-furanylmethyl)-1H-pyrrole-2-carboxylic acid]	10.2 +/- 3.4 units/ml	93.2%
O=C(O)c1cccn1Cc1ccc(-c2ccccc2)cc1 [Compound 3, 1-([1,1'-Biphenyl]-4-ylmethyl)-1H-Pyrrole-2-Carboxylic Acid]	26.6 +/- 3.9 units/ml	94.9%
O=C(O)c1cccn1Cc1ccccc1 [Compound 2, 1-(phenylmethyl)-1H-pyrrole-2-carboxylic acid]	171.3 +/- 7.9 units/ml	67.4%
